Source: patent US8932597B2 (priority 2008, dated 2015)

Columns and labels:
14C2 antibody = format: binding
mAb 8i10 = format: binding, human
mAb 23K12 = format: binding, human
2N9 control antibody = format: binding
HuM2e antibody 8I10 = format: binding, human
HuM2e antibody 23K12 = format: binding, human
[1] = tested on: anti-M2 human monoclonal antibody Z3G1; format: binding

Substance | Binding activity to truncated M2 peptides, ELISA absorbance at 450 nm, 14C2 (14C2 antibody) | Binding activity to truncated M2 peptides, ELISA absorbance at 450 nm, 8i10 (mAb 8i10) | Binding activity to truncated M2 peptides, ELISA absorbance at 450 nm, 23K12 (mAb 23K12) | Binding activity to truncated M2 peptides, ELISA absorbance at 450 nm, 2N9 (2N9 control antibody) | also measured
IRNEWGCRCNDSSD [CM14] | 0.23 | 0.14 | 0.36 | 0.13 | 
VETPIRNEWGCR [M12] | 0.15 | 0.09 | 0.20 | 0.09 | 
SLLTEVETPIRNEWGCRCNDSSD [M2] | 3.85 | 0.11 | 0.22 | 0.06 | 
CSLLTECGSLLTCV (epitope peptide) [SEQ ID NO: 463] |  |  |  |  | Binding to 8I10 (in words) (HuM2e antibody 8I10): very best specific binder; Binding to 23K12 (in words) (HuM2e antibody 23K12): very best specific binder
SLLTEVETPIR [NM11] | 0.21 | 0.13 | 0.30 | 0.12 | 
ETPIRNEWGCRCNDSSD [CM17] |  | 0.11 |  | 0.11 | 
LLTEVETPIRNEWGCR [M16] | 3.94 | 0.09 | 0.21 | 0.09 | 
SLLTEVETPIRNEWGC [NM16] | 3.90 | 0.29 | 0.62 | 0.09 | 
SLLTEVETP [NM9] |  | 0.12 |  | 0.19 | 
RNEWGCRCNDSSD [CM13] |  | 0.14 |  | 0.13 | 
SLLTEVETPIRNE [NM13] |  | 0.11 |  | 0.10 | 
TPIRNEWGCRCNDSSD [CM16] | 0.23 | 0.13 | 0.35 | 0.12 | 
MSLLTEVETPIRNEWGCRCNDSSD [M2e] | 3.98 | 0.13 | 0.43 | 0.10 | 
SLLTEVE [NM7] | 0.14 | 0.10 | 0.20 | 0.08 | 
SLLTEVETPIRNEW [NM14] |  | 0.11 |  | 0.09 | 
SLLTEVETPIRNEWG [NM15] |  | 0.12 |  | 0.11 | 
SLLTEVETPIRN [NM12] | 0.20 | 0.10 | 0.24 | 0.09 | 
SLLTEVETPIRNEWGCR [NM17] | 3.99 | 0.26 | 0.58 | 0.10 | 
LTEVETPIRNEWGCR [M15] |  | 0.09 |  | 0.09 | 
NEWGCRCNDSSD [CM12] | 0.27 | 0.14 | 0.39 | 0.14 | 
PIRNEWGCRCNDSSD [CM15] |  | 0.12 |  | 0.11 | 
SLLTEVETPI [NM10] | 0.17 | 0.10 | 0.24 | 0.10 | 
SLLTEVET [NM8] | 0.15 | 0.10 | 0.20 | 0.09 | 
654 (SLLTEVETPIRYEWGCRCNDSSD; epitope peptide) [compound 654] |  |  |  |  | Signal (peptides that show specific binding to Z3G1) [1]: 2202; Signal (peptides that bind to 23K21 and 8I10) (HuM2e antibody 23K12): 755
409 (SLLTEVETPIRNEWGCRCNDKSD; epitope peptide) [compound 409] |  |  |  |  | Signal (peptides that bind to Z3G1) [1]: 2484; Signal (peptides that bind to 23K21 and 8I10) (HuM2e antibody 23K12): 898
684 (SLLTEVETPIRNHWGCRCNDSSD; epitope peptide) [compound 684] |  |  |  |  | Signal (peptides that show specific binding to Z3G1) [1]: 2377; Signal (peptides that bind to 23K21 and 8I10) (HuM2e antibody 23K12): 728
621 (SLLTEVEFPIRNEWGCRCNDSSD; epitope peptide) [compound 621] |  |  |  |  | Signal (peptides that show specific binding to Z3G1) [1]: 2297; Signal (peptides that bind to 23K21 and 8I10) (HuM2e antibody 23K12): 805
304 (MSLCTEVGMSLLCEV; epitope peptide) [compound 304] |  |  |  |  | Signal (peptides that bind to Z3G1) [1]: 2616; Signal (peptides that bind to 23K21 and 8I10) (HuM2e antibody 23K12): 1935
